Laboratory results from paper PMC7216583 (Parasites & Vectors, 2020).
Like-named read-outs stand apart in the source and are kept apart here.

Assays:
[1] = test system: Ron; set-up: method as in S-inhibitor catalog; details: vendor brief description; ref S-inhibitor catalog; cited from earlier work
[2] = test system: Flt1; set-up: method as in S-inhibitor catalog; details: vendor brief description; ref S-inhibitor catalog; cited from earlier work
[3] = in vitro; details: human, Host viability (%) mean
[4] = test system: Mer; set-up: method as in S-inhibitor catalog; details: vendor brief description; ref S-inhibitor catalog; cited from earlier work
[5] = test system: FGFR3; set-up: method as in S-inhibitor catalog; details: vendor brief description; ref S-inhibitor catalog; cited from earlier work
[6] = test system: c-Met; set-up: method as in S-inhibitor catalog; details: vendor brief description; ref S-inhibitor catalog; cited from earlier work
[7] = test system: PDGFRβ; set-up: method as in S-inhibitor catalog; details: vendor brief description; ref S-inhibitor catalog; cited from earlier work
[8] = test system: Toxoplasma gondii RH-2F tachyzoites; assay: microbe, parasite or virus in culture; details: 72 h
[9] = test system: Flt3; set-up: method as in S-inhibitor catalog; details: vendor brief description; ref S-inhibitor catalog; cited from earlier work
[10] = test system: FGFR2; set-up: method as in S-inhibitor catalog; details: vendor brief description; ref S-inhibitor catalog; cited from earlier work
[11] = test system: FGFR1; details: read-out: IC50, FGFR1; vendor brief description; ref S-inhibitor catalog; cited from earlier work
[12] = test system: cyclin A/CDK2; set-up: method as in S-inhibitor catalog; details: vendor brief description; ref S-inhibitor catalog; cited from earlier work
[13] = test system: PI3K/mTOR; set-up: method as in S-inhibitor catalog; details: vendor brief description; ref S-inhibitor catalog; read-out: IC50, dual PI3K/mTOR inhibitor; cited from earlier work
[14] = test system: Akt phosphorylation on S473; set-up: method as in S-inhibitor catalog; details: vendor brief description; ref S-inhibitor catalog; cited from earlier work
[15] = test system: Akt phosphorylation on T308; set-up: method as in S-inhibitor catalog; details: vendor brief description; ref S-inhibitor catalog; cited from earlier work
[16] = test system: CDK9; set-up: method as in S-inhibitor catalog; details: vendor brief description; ref S-inhibitor catalog; cited from earlier work
[17] = test system: Cdc7; set-up: method as in S-inhibitor catalog; details: vendor brief description; ref S-inhibitor catalog; cited from earlier work
[18] = test system: HDAC2; set-up: method as in S-inhibitor catalog; details: vendor brief description; ref S-inhibitor catalog; cited from earlier work
[19] = test system: PI3Kβ; set-up: method as in S-inhibitor catalog; details: vendor brief description; ref S-inhibitor catalog; cited from earlier work
[20] = test system: PI3Kα; set-up: method as in S-inhibitor catalog; details: vendor brief description; ref S-inhibitor catalog; cited from earlier work
[21] = test system: mTOR; set-up: method as in S-inhibitor catalog; details: vendor brief description; ref S-inhibitor catalog; cited from earlier work
[22] = biological target: PKCθ; set-up: method as in S-inhibitor catalog; details: vendor brief description; ref S-inhibitor catalog; cited from earlier work
[23] = test system: HER2; details: vendor brief description; ref S-inhibitor catalog; cited from earlier work
[24] = test system: EGFR; set-up: method as in S-inhibitor catalog; details: vendor brief description; ref S-inhibitor catalog; cited from earlier work
[25] = test system: CETP; set-up: method as in S-inhibitor catalog; details: vendor brief description; ref S-inhibitor catalog; cited from earlier work
[26] = test system: mGlu5; set-up: method as in S-inhibitor catalog; details: vendor brief description; ref S-inhibitor catalog; read-out: EC50, mGlu5 allosteric modulator; cited from earlier work
[27] = test system: JAK2; set-up: method as in S-inhibitor catalog; details: in HEL cells; vendor brief description; ref S-inhibitor catalog; cited from earlier work
[28] = test system: Stat3; set-up: method as in S-inhibitor catalog; details: in HEL cells; vendor brief description; ref S-inhibitor catalog; cited from earlier work
[29] = test system: Mps1; set-up: method as in S-inhibitor catalog; details: vendor brief description; ref S-inhibitor catalog; cited from earlier work
[30] = test system: Toxoplasma gondii RH-2F tachyzoites; details: preliminary screen of compound library; mean
[31] = read-out: Parasite inhibition (%) mean, preliminary screen of compound library, mean

For `CN(C[C@@H]1COCCO1)S(=O)(=O)Nc1ccc2ccc3ncc(-c4cnn(C)c4)cc3c(=O)c2c1` [MK-2461], the IC50 [1] is listed as 7 nM, the IC50 [2] is listed as 10 nM and the viability at 72 h [3] is listed as 60.3%. The IC50 [4] was 24 nM, the IC50 [5] was 50 nM and the IC50 [6] was 2.5 nM. The IC50 [7] was 22 nM, the inhibition of growth at 5 µM [8, 31] was 79.8% and the IC50 [9] was 22 nM. The IC50 [10] was 39 nM and the IC50 [11] was 65 nM.
In the case of `CNC(=O)c1nn(C)c2c1C(C)(C)Cc1cnc(Nc3ccc(N4CCN(C)CC4)cc3)nc1-2` [Milciclib (PHA-848125)], the inhibition of growth at 5 µM [8, 31] is given as 16.4% and the IC50 [12] is given as 45 nM.
In the case of `COc1ccc(-c2ccc3ncc4c(c3c2)n(-c2ccc(N3CCNCC3)c(C(F)(F)F)c2)c(=O)n4C)cn1` [NVP-BGT226], the IC50 [13] is listed as 1 nM and the inhibition of growth at 5 µM [8, 31] is listed as 6.1%.
For `COc1ccc(-c2cc3c(C)nc(N)nc3n([C@H]3CC[C@H](OCCO)CC3)c2=O)cn1` [PF-04691502], the IC50 [14] is listed as 3.8 nM, the IC50 [15] is listed as 7.5 nM and the inhibition of growth at 5 µM [8, 31] is listed as 11.5%.
In the case of `O=C1NCCc2[nH]c(-c3ccncc3)cc21` [PHA-767491], the IC50 [16] is given as […], the inhibition of growth at 5 µM ([8]; read-out: Parasite inhibition (%) mean) is given as 2.1% and the IC50 [17] is given as […].
In the case of `COc1ccc(-c2nc(N3CCOCC3)c3sc(CN(C)c4ncc(C(=O)NO)cn4)cc3n2)cn1` [PI3K/HDAC Inhibitor I], the viability at 72 h [3] is given as 72.1%, the IC50 [18] is given as 5 nM and the inhibition of growth at 5 µM [8, 31] is given as 78.4%.
For `CCn1nnc2c(N3CCOCC3)nc(-c3ccc(NC(=O)Nc4ccc(C(=O)N5CCN(C)CC5)cc4)cc3)nc21` [PKI-402], the IC50 [19] is listed as […], the IC50 [20] is listed as 2 nM and the IC50 [21] is listed as 3 nM. For the same compound, the inhibition of growth at 5 µM [8, 31] was 36.9%.
For `CN1CCN(c2nc(C3=C(c4c[nH]c5ccccc45)C(=O)NC3=O)c3ccccc3n2)CC1` [Sotrastaurin (AEB071)], the Ki [22] is listed as 0.22 nM and the inhibition of growth at 5 µM [8, 31] is listed as 40.4%.
In the case of `CC(C)(O)CC(=O)NCCn1ccc2ncnc(Nc3ccc(Oc4cccc(C(F)(F)F)c4)c(Cl)c3)c21` [TAK-285], the IC50 [23] is listed as 17 nM, the IC50 [24] is listed as […] and the inhibition of growth at 5 µM [8, 31] is listed as -12.2%.
In the case of `CCOC(=O)N1c2ccc(C(F)(F)F)cc2[C@H](N(Cc2cc(C(F)(F)F)cc(C(F)(F)F)c2)C(=O)OC)C[C@H]1CC` [Torcetrapib (CP-529414)], the IC50 [25] is listed as 37 nM and the inhibition of growth at 5 µM [8, 31] is listed as 22.1%.
For `CCCCOc1ccc(C(=O)Nc2ccc(F)cc2F)cc1` [VU 0357121], the EC50 [26] is listed as 33 nM and the inhibition of growth at 5 µM [8, 31] is listed as 0.1%.
In the case of `C[C@H](NC(=O)/C(C#N)=C/c1cccc(Br)n1)c1ccccc1` [WP1066], the IC50 [27] is listed as 2300 nM, the inhibition of growth at 5 µM [8, 31] is listed as -8.7% and the IC50 [28] is listed as 2430 nM.
For AZ 3146, the IC50 [29] is given as roughly 35 nM and the “Parasite inhibition (%) mean” value [30] is given as 3.4%.
